Assay [1] has as its target human norepinephrine transporter (Homo sapiens, UniProt P23975). In words: Human norepinephrine (hNET) receptor binding, [125I]-RTI-55. To be noted: membranes of HEK-293 cells transfected with human norepinephrine transporter cDNA; 50 pM [125I]-RTI-55; IC50 converted by Cheng-Prusoff. The method, then: Cell pastes of human embryonic kidney 293 (HEK-293) cells transfected with a human norepinephrine transporter cDNA were prepared. The cell pastes were resuspended in 400 to 700 mL of Krebs-N-2-hydroxyethylpiperazine-N′-2-ethanesulfonic acid (HEPES) assay buffer (25 mM HEPES, 122 mM NaCl, 3 mM KCl, 1.2 mM MgSO4, 1.3 mM CaCl2, and 11 mM glucose, pH 7.4) with a Polytron homogenizer at setting 7 for 30 seconds. Aliquots of membranes (5 mg/mL protein) were stored in liquid nitrogen until used.
The binding assay was set up in Beckman deep-well polypropylene plates with a total volume of 250 μL containing: test compound (concentration of 10^−5M to 10^−12M), cell membranes, and 50 pM [^125I]-RTI-55 ([^125I]-3 beta-(4-iodophenyl)tropan-2 beta-carboxylic acid methyl ester) (Perkin Elmer, NEX-272; specific activity 2200 Ci/mmol). The reaction was incubated by gentle agitation for 90 minutes at room temperature and was terminated by filtration through Whatman GF/C filter plates using a Brandel 96-well plate harvester. Scintillation fluid (100 μL) was added to each well, and bound [^125I]-RTI-55 was determined using a Wallac Trilux Beta Plate Counter. Test compounds were run in duplicate, and specific binding was defined as the difference between binding in the presence and absence of 10 μM desipramine.
Excel and GraphPad Prism software were used for data calculation and analysis. IC50 values were converted to Ki values using the Cheng-Prusoff equation. The Ki values (nM) for the hNET are reported below in Table 13.

Assay [2] deals with human serotonin transporter (Homo sapiens, UniProt P31645). Nature of the assay: Human serotonin (hSERT) receptor binding, [125I]-RTI-55. Particulars: membranes of HEK-293 cells transfected with human serotonin transporter cDNA, IC50 converted by Cheng-Prusoff. As to the method:
Cell pastes of HEK-293 cells transfected with a human serotonin transporter cDNA were prepared. The cell pastes were resuspended in 400 to 700 ml of Krebs-HEPES assay buffer (25 mM HEPES, 122 mM NaCl, 3 mM KCl, 1.2 mM MgSO4, 1.3 mM CaCl2, and 11 mM glucose, pH 7.4) with a Polytron homogenizer at Setting 7 for 30 seconds. Aliquots of membranes (˜2.5 mg/mL protein) were stored in liquid nitrogen until used.
Assays were set up in FlashPlates pre-coated with 0.1% polyethyleneimine (PEI) in a total volume of 250 μL containing: test compound (concentration 10^−5M to 10^−12M), cell membranes, and […] [^125I]-RTI-55 (Perkin Elmer, NEX-272; specific activity 2200 Ci/mmol). The reaction was incubated and gently agitated for 90 minutes at room temperature, and terminated by removal of assay volume. Plates were covered, and bound [^125I]-RTI-55 was determined using a Wallac Trilux Beta Plate Counter. Test compounds were run in duplicate, and specific binding was defined as the difference between binding in the presence and absence of 10 μM citalopram.
Excel and GraphPad Prism software were used for data calculation and analysis. IC50 values were converted to Ki values using the Cheng-Prusoff equation.

A value given as a limit tells only on which side of the number the result lay.

In general, Ki refers to a dissociation constant, usually derived from enzyme kinetics or from competition with a known ligand. A high value points to lower affinity.

human norepinephrine transporter, sequence (P23975 whole entry): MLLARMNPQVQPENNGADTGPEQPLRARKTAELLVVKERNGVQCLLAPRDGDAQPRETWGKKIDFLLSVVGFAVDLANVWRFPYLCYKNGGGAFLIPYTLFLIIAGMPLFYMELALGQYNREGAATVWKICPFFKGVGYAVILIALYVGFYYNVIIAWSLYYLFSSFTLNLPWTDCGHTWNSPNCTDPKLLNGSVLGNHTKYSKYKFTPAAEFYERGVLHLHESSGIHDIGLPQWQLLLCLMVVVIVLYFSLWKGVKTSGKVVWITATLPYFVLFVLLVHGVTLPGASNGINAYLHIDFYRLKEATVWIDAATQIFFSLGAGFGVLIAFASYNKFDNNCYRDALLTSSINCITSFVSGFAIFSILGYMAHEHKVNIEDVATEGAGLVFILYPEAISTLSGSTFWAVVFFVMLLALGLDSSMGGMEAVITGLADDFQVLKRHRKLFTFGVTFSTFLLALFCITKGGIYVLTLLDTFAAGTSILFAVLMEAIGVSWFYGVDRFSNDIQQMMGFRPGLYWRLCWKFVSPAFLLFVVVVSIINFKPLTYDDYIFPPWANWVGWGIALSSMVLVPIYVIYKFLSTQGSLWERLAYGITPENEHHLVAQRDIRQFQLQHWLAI
human serotonin transporter, sequence (P31645 whole entry): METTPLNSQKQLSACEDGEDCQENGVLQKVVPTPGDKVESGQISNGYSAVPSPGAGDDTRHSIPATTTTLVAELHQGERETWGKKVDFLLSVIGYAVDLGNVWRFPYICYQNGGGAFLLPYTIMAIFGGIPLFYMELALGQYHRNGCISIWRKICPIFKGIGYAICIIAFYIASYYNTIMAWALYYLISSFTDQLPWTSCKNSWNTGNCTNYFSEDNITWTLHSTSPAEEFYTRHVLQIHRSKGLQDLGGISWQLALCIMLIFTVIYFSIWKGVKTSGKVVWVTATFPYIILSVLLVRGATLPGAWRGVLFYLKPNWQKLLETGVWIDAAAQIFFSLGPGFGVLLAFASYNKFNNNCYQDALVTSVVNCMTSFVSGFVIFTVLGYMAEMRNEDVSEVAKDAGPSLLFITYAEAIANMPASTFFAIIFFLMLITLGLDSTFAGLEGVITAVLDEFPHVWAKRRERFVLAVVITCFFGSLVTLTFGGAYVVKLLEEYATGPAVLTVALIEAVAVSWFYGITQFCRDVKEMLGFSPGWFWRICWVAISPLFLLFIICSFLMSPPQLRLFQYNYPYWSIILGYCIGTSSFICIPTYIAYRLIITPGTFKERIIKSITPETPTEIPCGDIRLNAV

On to `Cc1ccc(OC[C@H]2CCCNC2)c(Oc2c(C)cccc2C)n1` [Example 2, (S)-2-(2,6-dimethyl-phenoxy)-6-methyl-3-(piperidin-3-ylmethoxy)-pyridine fumaric acid], for which the results for the Ki in assay [1] and in assay [2] were 17 nM and not below 10000 nM, respectively.
Taken in the same sequence, the figures for `COc1ccccc1Oc1nc(C)ccc1OC[C@H]1CCCNC1` [Example 3, (S)-2-(2-methoxy-phenoxy)-6-methyl-3-(piperidin-3-ylmethoxy)-pyridine fumaric acid] were 2.2 nM and 1200 nM.
Taken in the same sequence, the figures for `CC(C)Oc1ncccc1OC[C@H]1CCCNC1` [Example 80, (S)-2-isopropoxy-3-(piperidin-3-ylmethoxy)-pyridine fumaric acid] were 102 nM and more than 10000 nM.
Taken in the same sequence, the figures for `Cc1ccc(Oc2ncccc2OC[C@H]2CCCNC2)cc1` [Example 52, (S)-2-(4-methyl-phenoxy)-3-(piperidin-3-ylmethoxy)-pyridine fumaric acid] were 4 nM and 5200 nM.
For `Cc1ccc(OC[C@H]2CCCNC2)c(Oc2cccc(C(F)(F)F)c2)n1` [Example 27, (S)-6-methyl-2-(3-trifluoromethy-phenoxy)-3-(piperidin-3-ylmethoxy)-pyridine fumaric acid], the figures for the Ki in assay [1] and in assay [2] were 310 nM and 560 nM, respectively.
Taken in the same sequence, the figures for `CC(C)COc1ccccc1O[C@@H](C)[C@H]1CCCNC1` [Example 109, (S)-3-[(S)-1-(2-isobutoxy-phenoxy)-ethyl]-piperidine] were 3 nM and 1200 nM.
The corresponding values for `Fc1ccc(Oc2ncccc2OC(c2ccccc2)C2CCCNC2)cc1` (single isomer, unassigned; stereoisomer a) [Example 88, 2-(4-fluoro-phenoxy)-3-[((R or S)-phenyl)-((S)-piperidin-3-yl)-methoxy]-pyridine fumaric acid, stereoisomer A] are 4 nM and 150 nM.
The corresponding values for `Clc1ccc(Oc2ncccc2OC[C@H]2CCCNC2)cc1` [Example 55, (S)-2-(4-chloro-phenoxy)-3-(piperidin-3-ylmethoxy)-pyridine fumaric acid] are 17 nM and more than 10000 nM.
Regarding `FC(F)(F)Oc1ccccc1O[C@@H](c1ccccn1)[C@H]1CCCNC1` [Example 116, 2-[(S)-piperidin-3-yl-{(R)-2-trifluoromethoxy-phenoxy}-methyl]-pyridine fumaric acid], the Ki in assay [1] came out at 3 nM; in assay [2], 3700 nM.
The corresponding values for `CCOc1ncccc1OC(c1ccccc1)C1CCCNC1` (single isomer, unassigned; stereoisomer b) [Example 91, 2-ethoxy-3-[((R or S)-phenyl)-((S)-piperidin-3-yl)-methoxy]-pyridine fumaric acid, stereoisomer B] are 99 nM and 430 nM.
`COc1ccc(Oc2ncccc2OC[C@H]2CCCNC2)cc1` [Example 51, (S)-2-(4-methoxy-phenoxy)-3-(piperidin-3-ylmethoxy)-pyridine fumaric acid]: the Ki in assay [1] amounted to 27 nM; in assay [2] it was 7300 nM.
On to `COc1ccc(F)cc1O[C@@H](c1ccccn1)[C@H]1CCCNC1` [Example 117, 2-[{(R)-5-fluoro-2-methoxy-phenoxy}-(S)-piperidin-3-yl-methyl]-pyridine fumaric acid], for which the figures for the Ki in assay [1] and in assay [2] were 16 nM and 4600 nM, respectively.
Taken in the same sequence, the figures for `Fc1ccc(Oc2c(F)cccc2OC[C@H]2CCCNC2)c(Cl)c1` [Example 38, (S)-3-[2-(2-chloro-4-fluoro-phenoxy)-3-fluoro-phenoxymethyl]-piperidine fumaric acid] were 3.6 nM and 1900 nM.
Taken in the same sequence, the figures for `Cc1ccc(OC[C@H]2CCCNC2)c(Oc2ccccc2OC(C)C)n1` [Example 10, (S)-2-[2-(1-methyl-ethoxy)-phenoxy]-6-methyl-3-(piperidin-3-ylmethoxy)-pyridine fumaric acid] were 10.1 nM and 2600 nM.
Taken in the same sequence, the figures for `CC[C@H](Oc1cccnc1Oc1ccccc1)[C@H]1CCCNC1` [Example 84, (S,S)-2-phenoxy-3-(1-piperidin-3-yl-propoxy)-pyridine fumaric acid] were 3 nM and 2030 nM.
For the molecule `Fc1ccc(Oc2cc(F)ccc2OC[C@H]2CCCNC2)c(Cl)c1` [Example 39, (S)-3-[2-(2-chloro-4-fluoro-phenoxy)-4-fluoro-phenoxymethyl]-piperidine fumaric acid], the values for the Ki in assay [1] and in assay [2] were 802 nM and 110 nM, respectively.
Taken in the same sequence, the figures for `Cc1ccc(OC[C@H]2CCCNC2)c(Oc2cccc(Cl)c2)n1` [Example 15, (S)-2-(3-chloro-phenoxy)-6-methyl-3-(piperidin-3-ylmethoxy)-pyridine fumaric acid] were 9.8 nM and 287 nM.
For the molecule `Cc1ccc(OC[C@H]2CCCNC2)c(Oc2ccc(Cl)cc2Cl)n1` [Example 22, (S)-2-(2,4-dichloro-phenoxy)-6-methyl-3-(piperidin-3-ylmethoxy)-pyridine fumaric acid], the inhibition constant (Ki) in assay [1] came out at 4.7 nM; in assay [2], 79 nM.
Taken in the same sequence, the figures for `COc1cccc(F)c1O[C@@H](c1ccccn1)[C@H]1CCCNC1` [Example 115, 2-[{(R)-2-fluoro-6-methoxy-phenoxy}-(S)-piperidin-3-yl-methyl]-pyridine fumaric acid] were 4 nM and 5020 nM.
The corresponding values for `Cc1ccc(OC[C@H]2CCCNC2)c(Oc2ccccc2)n1` [Example 95, (S)-6-methyl-2-phenoxy-3-(piperidin-3-ylmethoxy)-pyridine fumaric acid] are 4 nM and 530 nM.
For `Cc1ccc(OC[C@H]2CCCNC2)c(Oc2ccc(F)cc2Cl)n1` [Example 24, (S)-2-(2-chloro-4-fluoro-phenoxy)-6-methyl-3-(piperidin-3-ylmethoxy)-pyridine fumaric acid], the Ki in assay [1] came to 2.7 nM; in assay [2], 160 nM.
Taken in the same sequence, the figures for `COc1cccc(Oc2nc(C)ccc2OC[C@H]2CCCNC2)c1OC` [Example 9, (S)-2-(2,3-dimethoxy-phenoxy)-6-methyl-3-(piperidin-3-ylmethoxy)-pyridine fumaric acid] were 3200 nM and not below 10000 nM.
`COc1cc(Cl)ccc1Oc1cc(C(F)(F)F)ccc1OC[C@H]1CCCNC1` [Example 35, (S)-3-[2-(4-chloro-2-methoxy-phenoxy)-4-trifluoromethyl-phenoxymethyl]-piperidine fumaric acid]: the Ki in assay [1] was 250 nM; in assay [2] it was 35 nM.
Taken in the same sequence, the figures for `C[C@H](Oc1ccccc1OCc1ccccc1)[C@H]1CCCNC1` [Example 108, (S)-3-[(S)-1-(2-benzyloxy-phenoxy)-ethyl]-piperidine oxalic acid] were 3 nM and 730 nM.
As for `N#Cc1ccc(Oc2ncccc2OC[C@H]2CCCNC2)cc1` [Example 57, (S)-4-[3-(piperidin-3-ylmethoxy)-pyridin-2-yloxy]-benzonitrile fumaric acid], the Ki is 58 nM in assay [1] and more than 10000 nM in assay [2].
Taken in the same sequence, the figures for `CCOc1ccccc1O[C@@H](c1ccccn1)[C@H]1CCCNC1` [Example 114, 2-[{(R)-2-ethoxy-phenoxy}-(S)-piperidin-3-yl-methyl]-pyridine fumaric acid] were 7 nM and 3700 nM.
The corresponding values for `Fc1cc(Cl)ccc1Oc1cc(Cl)ccc1OC[C@H]1CCCNC1` [Example 33, (S)-3-[4-chloro-2-(4-chloro-2-fluoro-phenoxy)-phenoxymethyl]-piperidine fumaric acid] are 32 nM and 36 nM.
Taken in the same sequence, the figures for `Cc1ccc(OC[C@H]2CCCNC2)c(Oc2ccc(F)cc2)n1` [Example 41, (S)-2-(4-fluoro-phenoxy)-6-methyl-3-(piperidin-3-ylmethoxy)-pyridine fumaric acid] were 3.8 nM and 210 nM.
Turning to `COc1cccc(F)c1OC[C@H]1CCCNC1` [Example 103, (S)-3-(2-fluoro-6-methoxy-phenoxymethyl)-piperidine fumaric acid], the Ki in assay [1] amounted to 45 nM; in assay [2] it was 1200 nM.

These data come from patent US20100120858A1, “Piperidine Derivatives” (Pfizer Inc., priority 2006, published 2010).
